Where a name gives a salt, the structure may show the parent alone. The source made the active and inactive calls.
Assays:
[1] = biological target: T1, Apoptotic protease-activating factor 1 (Homo sapiens, UniProt O14727); type: functional
T1 sequence (O14727 whole entry): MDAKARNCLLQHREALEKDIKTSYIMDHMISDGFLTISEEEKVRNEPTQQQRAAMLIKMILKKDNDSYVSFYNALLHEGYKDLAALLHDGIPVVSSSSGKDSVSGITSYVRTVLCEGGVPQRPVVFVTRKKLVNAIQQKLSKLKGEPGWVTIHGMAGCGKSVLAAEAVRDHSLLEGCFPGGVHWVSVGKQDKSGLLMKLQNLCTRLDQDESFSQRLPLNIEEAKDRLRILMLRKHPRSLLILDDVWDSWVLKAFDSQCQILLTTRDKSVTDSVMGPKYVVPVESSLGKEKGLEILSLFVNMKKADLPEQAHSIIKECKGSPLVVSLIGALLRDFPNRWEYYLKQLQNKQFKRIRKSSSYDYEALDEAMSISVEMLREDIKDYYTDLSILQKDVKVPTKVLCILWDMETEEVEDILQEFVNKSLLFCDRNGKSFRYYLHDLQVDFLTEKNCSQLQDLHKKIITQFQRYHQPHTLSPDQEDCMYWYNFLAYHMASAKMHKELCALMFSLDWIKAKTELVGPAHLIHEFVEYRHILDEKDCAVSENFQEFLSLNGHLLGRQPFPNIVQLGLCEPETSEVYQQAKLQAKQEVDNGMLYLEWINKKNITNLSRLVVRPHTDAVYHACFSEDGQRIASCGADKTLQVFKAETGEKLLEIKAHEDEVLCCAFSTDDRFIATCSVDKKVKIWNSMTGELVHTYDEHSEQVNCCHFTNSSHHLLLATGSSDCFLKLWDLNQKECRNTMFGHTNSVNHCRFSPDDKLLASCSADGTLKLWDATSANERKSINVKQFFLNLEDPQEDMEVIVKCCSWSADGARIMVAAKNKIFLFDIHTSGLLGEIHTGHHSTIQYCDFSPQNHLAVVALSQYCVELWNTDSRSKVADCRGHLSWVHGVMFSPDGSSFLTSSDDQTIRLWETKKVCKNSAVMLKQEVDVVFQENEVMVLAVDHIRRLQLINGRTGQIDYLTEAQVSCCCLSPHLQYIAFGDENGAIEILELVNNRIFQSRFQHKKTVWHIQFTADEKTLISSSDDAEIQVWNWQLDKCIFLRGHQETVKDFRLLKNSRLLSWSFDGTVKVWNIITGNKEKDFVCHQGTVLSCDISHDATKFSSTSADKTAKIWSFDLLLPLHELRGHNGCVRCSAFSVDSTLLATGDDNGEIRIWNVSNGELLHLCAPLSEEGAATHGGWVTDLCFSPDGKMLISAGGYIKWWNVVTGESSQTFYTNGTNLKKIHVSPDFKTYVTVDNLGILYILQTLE

[2] = biological target: T2, DNA repair protein RAD52 homolog (Homo sapiens, UniProt P43351); type: functional, biochemical
T2 sequence (P43351 whole entry): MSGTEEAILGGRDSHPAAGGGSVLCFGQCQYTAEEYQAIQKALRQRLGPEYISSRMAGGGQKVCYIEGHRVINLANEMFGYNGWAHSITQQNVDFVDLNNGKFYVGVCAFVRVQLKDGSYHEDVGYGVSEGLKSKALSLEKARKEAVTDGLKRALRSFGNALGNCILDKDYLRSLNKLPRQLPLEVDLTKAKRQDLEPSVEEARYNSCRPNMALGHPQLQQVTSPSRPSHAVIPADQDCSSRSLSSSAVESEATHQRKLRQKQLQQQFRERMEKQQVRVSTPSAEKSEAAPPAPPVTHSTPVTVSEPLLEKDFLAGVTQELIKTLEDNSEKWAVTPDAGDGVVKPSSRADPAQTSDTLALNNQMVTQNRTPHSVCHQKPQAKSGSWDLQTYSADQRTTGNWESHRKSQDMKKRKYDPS

[3] = biological target: T3, Adenosylmethionine-8-amino-7-oxononanoate aminotransferase (Mycobacterium tuberculosis, UniProt P9WQ81); assay: Mycobacterium tuberculosis BioA enzyme inhibitor Measured in Biochemical System Using Plate Reader - 2163-02_Inhibitor_Dose_CherryPick_Activity.; type: functional, Mycobacterium tuberculosis UT205
T3 sequence (P9WQ81 whole entry): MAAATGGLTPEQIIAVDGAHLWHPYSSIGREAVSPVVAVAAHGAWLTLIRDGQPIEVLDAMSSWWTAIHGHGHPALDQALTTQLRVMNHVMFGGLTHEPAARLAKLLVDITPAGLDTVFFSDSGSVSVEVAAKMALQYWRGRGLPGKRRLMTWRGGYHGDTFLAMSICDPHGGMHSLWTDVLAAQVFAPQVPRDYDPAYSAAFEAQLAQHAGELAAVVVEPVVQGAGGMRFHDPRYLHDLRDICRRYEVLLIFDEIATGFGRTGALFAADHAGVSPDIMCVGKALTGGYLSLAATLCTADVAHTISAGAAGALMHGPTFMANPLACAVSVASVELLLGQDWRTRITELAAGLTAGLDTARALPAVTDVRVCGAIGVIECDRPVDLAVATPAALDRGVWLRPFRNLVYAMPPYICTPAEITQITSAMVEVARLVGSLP

[4] = Luminescence-based cell-based high throughput dose response assay to identify activators of the DAF-12 from the parasite S. stercoralis (ssDAF-12).; type: functional
[5] = biological target: T4, Oxysterols receptor LXR-beta (Homo sapiens, UniProt P55055); assay: LXR agonists, Gal4 luciferase reporter, dose response, counter-screen for ssDAF-12 agonist project, cell-based, luminescence, HEK293, S. stercoralis campaign (AID 720737); type: functional; conditions: read-out: IC50 (the source's name)
T4 sequence (P55055 whole entry): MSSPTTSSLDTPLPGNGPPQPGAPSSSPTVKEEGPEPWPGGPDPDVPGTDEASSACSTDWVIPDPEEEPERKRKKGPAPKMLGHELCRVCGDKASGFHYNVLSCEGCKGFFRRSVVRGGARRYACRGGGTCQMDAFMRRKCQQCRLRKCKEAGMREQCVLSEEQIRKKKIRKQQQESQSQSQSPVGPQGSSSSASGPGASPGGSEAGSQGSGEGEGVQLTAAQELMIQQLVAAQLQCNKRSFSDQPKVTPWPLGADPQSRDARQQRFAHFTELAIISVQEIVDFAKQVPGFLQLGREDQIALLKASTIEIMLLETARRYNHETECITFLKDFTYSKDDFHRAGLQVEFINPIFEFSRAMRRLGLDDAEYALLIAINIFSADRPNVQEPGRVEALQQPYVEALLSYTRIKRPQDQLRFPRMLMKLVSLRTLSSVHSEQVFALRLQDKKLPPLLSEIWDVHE

[6] = activation of miR-122 Renilla sensor silencing – cell-based, Huh7 psiCHECK-miR122, Renilla luciferase, cherry-picked, dose response (AID 651956); type: functional;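 note: huh7 hepatoma cells stably carrying a psiCHECK-2 miR-122 sensor plasmid; renilla luciferase signal reporting endogenous miR-122 activity after 48 h compound exposure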
Genome polyprotein = Genome polyprotein (dengue virus type 2, UniProt P29990); assay: flavivirus cap methylation enzyme inhibition – biochemical, confirmation dose response, primary screen (AID 588689); type: functional
Genome polyprotein, sequence (P29990 2492-3391 limits assumed): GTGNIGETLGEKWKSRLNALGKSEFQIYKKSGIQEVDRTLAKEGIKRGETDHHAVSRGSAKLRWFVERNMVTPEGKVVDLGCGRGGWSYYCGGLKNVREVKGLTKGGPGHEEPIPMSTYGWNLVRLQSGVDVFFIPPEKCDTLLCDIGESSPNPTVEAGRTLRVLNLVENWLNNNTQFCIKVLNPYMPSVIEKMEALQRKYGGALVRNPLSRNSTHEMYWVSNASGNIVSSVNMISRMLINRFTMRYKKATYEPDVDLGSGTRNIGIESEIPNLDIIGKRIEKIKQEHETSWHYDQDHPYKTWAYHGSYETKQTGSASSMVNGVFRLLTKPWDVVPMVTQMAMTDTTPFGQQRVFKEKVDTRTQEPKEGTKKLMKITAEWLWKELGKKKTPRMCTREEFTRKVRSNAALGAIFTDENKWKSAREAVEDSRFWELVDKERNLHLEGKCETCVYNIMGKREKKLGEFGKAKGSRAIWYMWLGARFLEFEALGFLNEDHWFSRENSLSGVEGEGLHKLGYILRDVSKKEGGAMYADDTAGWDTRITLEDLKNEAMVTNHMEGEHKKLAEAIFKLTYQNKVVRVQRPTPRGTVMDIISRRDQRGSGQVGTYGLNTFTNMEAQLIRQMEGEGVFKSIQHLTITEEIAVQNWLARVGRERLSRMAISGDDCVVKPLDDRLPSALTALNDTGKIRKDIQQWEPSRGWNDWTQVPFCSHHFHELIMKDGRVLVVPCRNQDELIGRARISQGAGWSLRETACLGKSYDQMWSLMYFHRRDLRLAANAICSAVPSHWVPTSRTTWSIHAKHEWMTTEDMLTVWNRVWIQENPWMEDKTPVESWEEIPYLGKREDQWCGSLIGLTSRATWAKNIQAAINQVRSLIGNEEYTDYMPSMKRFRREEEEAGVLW

[7] = blockers of HIV-1 envelope-mediated cell-cell fusion – cherry-pick, dose response (AID 652057); type: functional, cell-based
[8] = HIV-1 AD8 envelope cell-cell fusion blockers – cherry-pick, dose response (AID 652062); type: functional, cell-based;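 note: luciferase signal from cell-cell fusion driven by HIV-1 clade B AD8 Env; potency is for inhibitors of fusion seen as a drop in luminescence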
[9] = off-target signal loss in HeLa-CEM21 co-culture – HeLa F-luc CTL cells, cherry-picked, counter-screen for HIV-1 Env fusion inhibitor project, dose response (AID 652040); type: functional, cell-based;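 note: potency for signal decrease marking cytotoxic or nonspecific inhibition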
[10] = blockers of HIV-1 ZM109 envelope-driven cell-cell fusion – HeLa effector, CEM target cells, luciferase, cherry-pick, dose response (AID 652058); type: functional, cell-based;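 note: luciferase signal from HIV-1 Env mediated cell-cell fusion of effector and target cells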
[11] = biological target: T5, High affinity choline transporter 1 (Homo sapiens, UniProt Q9GZV3); assay: human choline transporter blockers, potency – cell-based, 5-point CRC, membrane potential dye, dose response (AID 504840); type: functional
T5 sequence (Q9GZV3 whole entry): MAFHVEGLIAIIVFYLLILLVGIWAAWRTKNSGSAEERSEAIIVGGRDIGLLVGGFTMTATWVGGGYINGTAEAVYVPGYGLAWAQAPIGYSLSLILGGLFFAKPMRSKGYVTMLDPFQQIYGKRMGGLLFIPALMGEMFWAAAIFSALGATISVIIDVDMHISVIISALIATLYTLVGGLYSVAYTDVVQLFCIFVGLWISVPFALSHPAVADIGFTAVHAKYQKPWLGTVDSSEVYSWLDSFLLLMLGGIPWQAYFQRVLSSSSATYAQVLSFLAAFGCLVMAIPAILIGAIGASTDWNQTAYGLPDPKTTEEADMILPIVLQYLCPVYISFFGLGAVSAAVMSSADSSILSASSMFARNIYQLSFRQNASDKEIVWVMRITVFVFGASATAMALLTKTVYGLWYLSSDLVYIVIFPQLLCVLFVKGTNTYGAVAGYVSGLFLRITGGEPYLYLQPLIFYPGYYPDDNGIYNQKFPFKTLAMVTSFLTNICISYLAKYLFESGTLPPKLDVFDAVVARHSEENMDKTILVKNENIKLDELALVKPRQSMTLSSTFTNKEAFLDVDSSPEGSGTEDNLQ

[12] = biological target: T6, Sentrin-specific protease 8 (Homo sapiens, UniProt Q96LD8); type: functional
T6 sequence (Q96LD8 whole entry): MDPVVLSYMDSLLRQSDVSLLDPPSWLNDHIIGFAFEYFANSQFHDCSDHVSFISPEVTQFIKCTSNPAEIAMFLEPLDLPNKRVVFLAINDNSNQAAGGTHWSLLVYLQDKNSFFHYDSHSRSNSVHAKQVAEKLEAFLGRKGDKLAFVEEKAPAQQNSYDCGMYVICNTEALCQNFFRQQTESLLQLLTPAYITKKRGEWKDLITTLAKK

[13] = biological target: T6, Sentrin-specific protease 8; type: functional; remark: listed apart in the source
[14] = biological target: T7, Probable nicotinate-nucleotide adenylyltransferase (Staphylococcus aureus (strain N315), UniProt P65502); type: functional, Staphylococcus aureus subsp. aureus N315;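 for IC50 Mean: confirmatory dose-response retesting of NadD inhibitor hits first found in an ultra-high-throughput screen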
T7 sequence (P65502 whole entry): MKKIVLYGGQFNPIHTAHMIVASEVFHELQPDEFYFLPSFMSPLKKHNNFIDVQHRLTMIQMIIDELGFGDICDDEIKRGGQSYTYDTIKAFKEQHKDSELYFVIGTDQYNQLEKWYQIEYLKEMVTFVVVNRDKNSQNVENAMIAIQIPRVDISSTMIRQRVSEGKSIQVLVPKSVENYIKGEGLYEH

[15] = biological target: T7, Probable nicotinate-nucleotide adenylyltransferase; type: functional, Staphylococcus aureus subsp. aureus N315; conditions: read-out: IC50_Mean
Caspase-6 = biological target: T8, Caspase-6 (Homo sapiens, UniProt P55212); assay: inhibition of CASP6 peptide cleavage – biochemical, VEID-R110 fluorescence, cherry-pick, dose response (AID 720632)
T8 sequence (P55212 whole entry): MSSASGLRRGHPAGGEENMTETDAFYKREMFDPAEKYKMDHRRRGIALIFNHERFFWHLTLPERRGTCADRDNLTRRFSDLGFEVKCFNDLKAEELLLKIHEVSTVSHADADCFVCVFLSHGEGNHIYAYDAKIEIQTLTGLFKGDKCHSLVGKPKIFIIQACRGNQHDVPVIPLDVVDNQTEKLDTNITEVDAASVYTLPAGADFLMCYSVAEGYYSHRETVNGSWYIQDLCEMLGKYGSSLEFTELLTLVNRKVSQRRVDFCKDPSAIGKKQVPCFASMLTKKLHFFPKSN

[16] = microbe, parasite or virus in culture; type: functional; conditions: Mycobacterium tuberculosis
[17] = viability loss of HPDE-C7K cells – cell-based, fluorescence, HTS, primary screen (AID 431); type: functional; conditions: Homo sapiens
[18] = biological target: FAD-linked sulfhydryl oxidase ALR (Homo sapiens, UniProt P55789); assay: ALR-catalysed DTT oxidation blockers – biochemical, H2O2 detection, luminescence, cherry-pick, dose response (AID 493248)
FAD-linked sulfhydryl oxidase ALR, sequence (P55789 whole entry): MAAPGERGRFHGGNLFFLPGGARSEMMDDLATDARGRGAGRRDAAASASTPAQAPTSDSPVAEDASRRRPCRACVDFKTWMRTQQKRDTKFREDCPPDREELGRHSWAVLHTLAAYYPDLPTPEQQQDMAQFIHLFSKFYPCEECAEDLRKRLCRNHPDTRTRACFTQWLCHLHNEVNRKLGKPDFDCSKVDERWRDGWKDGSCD

[19] = HPDE-C7 pancreatic duct cell viability loss – fluorescence, HTS (AID 430); type: functional, cell-based; conditions: Homo sapiens

Structure (SMILES): COc1ccc(OCCNc2c([N+](=O)[O-])c(=O)oc3ccccc23)cc1
- IC50 [1]: 4.61 µM (active)

Structure (SMILES): CCOC(=O)N1CCN(C(S)=Nc2ccc3nc(N4CCN(CC)CC4)cc(C)c3c2)CC1
- AC50 [2]: 15 µM (active)

Structure (SMILES): COc1cc(C(=O)N2Cc3cc4ccccc4nc3C2C)cc(OC)c1OC (centres undefined)
- AC50 [3]: 2.01 µM (active)

Structure (SMILES): O=C(c1ccc([N+](=O)[O-])cc1)N1CCOCC1
- IC50 [4]: > 67.4 µM (inactive)
- EC50 [5]: > 67.4 µM (inactive)

Structure (SMILES): CC(=O)N(C[C@H]1N[C@H](CO)[C@@H]1c1ccc(-c2ccccc2)cc1)C(C)C
- AC50 [6]: 23.3 µM (active)

Structure (SMILES): COC(=O)CCC(=O)OC1(C)C(=O)C2=CN(CC3CC3)C(c3ccc(OC)cc3)=CC2=C(Br)C1=O (centres undefined)
- IC50 [1]: 31.7 µM (active)
- IC50 (Genome polyprotein): 30.5 µM (active)

Structure (SMILES): COc1ccc([C@@H]2[C@@H]3C(=O)N(C(C)(C)C)C(=O)[C@@H]3[C@]3(CC(C)C)C(=O)N(c4cccc(Br)c4)C(=O)N23)cc1
- AC50 [7]: < 0.26 µM (active)
- AC50 [8]: < 0.26 µM (active)
- AC50 [9]: < 0.26 µM (active)
- AC50 [10]: < 0.26 µM (active)

Structure (SMILES): COc1ccc(CSc2nnc3nc(O)cc(N)n23)cc1
- IC50 [4]: > 67.6 µM (inactive)
- EC50 [5]: > 67.6 µM (inactive)

Structure (SMILES): CCN(CC)CCNC(=O)c1cn(CC)c2ccc(S(=O)(=O)N3CCc4ccccc4C3)cc2c1=O
- IC50 [11]: 11.2 µM (active)
- AC50 [3]: 2.88 µM (active)

Structure (SMILES): COC/C=C/C1=CC2=CC(=O)C(C)(OC(=O)c3cnc4ccccc4n3)C(=O)C2=CN1C1CC1 (centres undefined)
- IC50 [12]: 16.6 µM (active)
- IC50 (Genome polyprotein): > 100 µM (active)
- IC50 [13]: 6.36 µM (active)

Structure (SMILES): C/C=C\C=C/C(=O)Nc1cccc(C2=NOC3(C2)C[C@@H](C(N)=O)N(C(=O)COc2ccc(Cl)cc2)C3)c1 (some centres undefined)
- IC50 [14]: 10.7 µM (active)
- IC50 [15]: 17.3 µM (active)

Structure (SMILES): Cc1[nH]cnc1CN1CCc2c(c3ccccc3n2C)C1=O [ALOSETRON HYDROCHLORIDE]
- AC50 (Caspase-6): 11.5 µM (active)
- IC50 [12]: 18.2 µM (active)
- IC50 [13]: 7.1 µM (active)

Structure (SMILES): CN(C)CCCN1c2ccccc2Sc2ccc(Cl)cc21 [CHLORPROMAZINE HYDROCHLORIDE]
- CC50 [16]: 26 µM (active)
- EC50 [17]: > 20 µM (not active)
- AC50 [18]: 1.01 µM (active)
- EC50 [19]: > 20 µM (not active)
- AC50 [2]: < 25.3 µM (active)
